Reference: ChEMBL document CHEMBL4651402, “Screening of ~5500 FDA-approved drugs and clinical candidates for anti-SARS-CoV-2 activity” (2021)
Counter-ions that a name gives are not always drawn.

System: SARS-CoV-2
Experiment: microbe, parasite or virus in culture
Conditions: Severe acute respiratory syndrome coronavirus 2, Vero C1008, 48 h

Row | Structure (SMILES) | IC50 | IC50 (read-out: pIC50 (converted))
1 | CCCCc1cc(OC)c2ccccc2c1OC(C)=O [BUNAPROLAST] | > 20 µM | > 20 µM
2 | NCCCC[C@H](N[C@@H](CCc1ccccc1)C(=O)O)C(=O)N1CCC[C@H]1C(=O)O [LISINOPRIL ANHYDROUS] | > 20 µM | > 20 µM
3 | CC(C)[C@](O)(c1ccc2cc(OC(F)F)c(OC(F)F)cc2c1)c1c[nH]nn1 [SEVITERONEL] | > 20 µM | > 20 µM
4 | COc1cc(N)c(Cl)cc1C(=O)NC1CCN(CCCOc2ccc(F)cc2)CC1OC (configuration not stated) [CISAPRIDE] | > 20 µM | > 20 µM
5 | CC(C)NCC(O)c1ccc(O)c(O)c1 (configuration not stated) [ISOPROTERENOL] | > 20 µM | > 20 µM
6 | c1cn2cc(-c3ccc4cn[nH]c4c3)nc(Nc3ccc(N4CCOCC4)cc3)c2n1 [ENTOSPLETINIB] | > 20 µM | > 20 µM
7 | O=C(Nc1c(Cl)cncc1Cl)c1ccc(OC(F)F)c(OCC2CC2)c1 [ROFLUMILAST] | > 20 µM | > 20 µM
8 | Oc1ccc2[nH]cc(CCCCN3CC=C(c4ccccc4)CC3)c2c1 [ROXINDOLE] | > 20 µM | > 20 µM
9 | CC1C2Cc3ccc(O)cc3C1(C)CCN2CCc1ccccc1 (configuration not stated) [PHENAZOCINE] | > 20 µM | > 20 µM
10 | C[C@H](CCc1ccccc1)NC[C@H](O)c1ccc(O)c(C(N)=O)c1 [DILEVALOL] | > 20 µM | > 20 µM
11 | Nc1cc(Cl)c(N=C2NCCN2)c(Cl)c1 [APRACLONIDINE] | > 20 µM | > 20 µM
12 | OC[C@H]1OC(O)[C@H](O)[C@@H](O)[C@@H]1O (some centres not stated) [DEXTROSE] | > 20 µM | > 20 µM
13 | Oc1cc2c(cc1O)[C@@H]1c3ccc(O)c(O)c3OC[C@]1(O)C2 [HEMATOXYLIN] | > 20 µM | > 20 µM
14 | COCC1CN=C(c2ccccc2Cl)c2cc(Br)ccc2N1C (configuration not stated) [METACLAZEPAM] | > 20 µM | > 20 µM
15 | NC[C@H]1O[C@H](O[C@H]2[C@H](O[C@@H]3O[C@H](CO)[C@@H](O)[C@H]3O)[C@@H](O)[C@H](N)C[C@@H]2N)[C@H](N)[C@@H](O)[C@@H]1O [RIBOSTAMYCIN] | > 20 µM | > 20 µM
16 | C[N+]1(C)CCC(OC(=O)C(O)(c2ccccc2)C2CCCC2)C1 (configuration not stated) [GLYCOPYRRONIUM] | > 20 µM | > 20 µM
17 | Cc1ccc(Cl)c(Nc2ccccc2C(=O)O)c1Cl [MECLOFENAMIC ACID] | > 20 µM | > 20 µM
18 | CNC(=N)NCCC[C@H](N)C(=O)O [TILARGININE] | > 20 µM | > 20 µM
19 | C[C@H]([C@@H](N)C(=O)N[C@@H](C(=O)O)[C@@H]1O[C@H](n2ccc(=O)[nH]c2=O)[C@@H](O)[C@H]1O)[C@@H](O)c1ccc(O)cn1 | > 20 µM | > 20 µM
20 | CC(C)(O/N=C(\C(=O)N[C@@H]1C(=O)N2C(C(=O)[O-])=C(C[n+]3ccccc3)CS[C@H]12)c1csc(N)n1)C(=O)O [CEFTAZIDIME] | > 20 µM | > 20 µM
21 | Cc1ncc(CNC(=O)N(CCCl)N=O)c(N)n1 [NIMUSTINE] | > 20 µM | > 20 µM

Row | Structure (SMILES) | IC50 | IC50 (read-out: pIC50 (converted))
22 | C[N+](C)(C)CCCCCCCCCC[N+](C)(C)C [DECAMETHONIUM] | > 20 µM | > 20 µM
23 | CCCCCCCCCCC(C)(C)C(=O)Nc1c(OC)cc(OC)cc1OC [CL-976] | > 20 µM | > 20 µM
24 | CC(C)(O)c1ccccc1CC[C@@H](SCC1(CC(=O)O)CC1)c1cccc(/C=C/c2ccc3ccc(Cl)cc3n2)c1 [MONTELUKAST] | > 20 µM | > 20 µM
25 | O=c1c(O)cc([C@H]2Oc3cc(O)cc(O)c3C[C@H]2O)cc2c([C@H]3Oc4cc(O)cc(O)c4C[C@H]3O)cc(O)c(O)c12 [THEAFLAVIN] | > 20 µM | > 20 µM
26 | O=c1cc(CO)occ1O [KOJIC ACID] | > 20 µM | > 20 µM
27 | CC(C)C[C@H](NC(=O)N1CCCCCC1)C(=O)N[C@H](Cc1cn(C)c2ccccc12)C(=O)N[C@H](Cc1ccccn1)C(=O)O | > 20 µM | > 20 µM
28 | CCOc1ccc(Cc2cc([C@@H]3O[C@H](SC)[C@@H](O)[C@H](O)[C@H]3O)ccc2Cl)cc1 [SOTAGLIFLOZIN] | > 20 µM | > 20 µM
29 | O=c1[nH]cc(F)c(=O)[nH]1 [FLUOROURACIL] | > 20 µM | > 20 µM
30 | CCOC(=O)C(CCc1ccccc1)NC(C)C(=O)N1CC2(CC1C(=O)O)SCCS2 (configuration not stated) | > 20 µM | > 20 µM
31 | C[C@@H](c1ccc2nccn2c1)n1nnc2ncc(-c3cnn(C)c3)nc21 [SAVOLITINIB] | > 20 µM | > 20 µM
32 | CC(=O)OCC[N+](C)(C)C [ACETYLCHOLINE] | > 20 µM | > 20 µM
33 | C/C(=C(\OCCOc1ccc(Cl)cc1)c1ccc(Cl)cc1Cl)n1ccnc1 | > 20 µM | > 20 µM
34 | Cc1nc(N(C)C(=O)Cc2ccc(-c3ccccn3)cc2)sc1S(N)(=O)=O | > 20 µM | > 20 µM
35 | COc1ccc(CC(C)N)cc1 (configuration not stated) [PARA-METHOXYAMPHETAMINE] | > 20 µM | > 20 µM
36 | CS(=O)(=O)Nc1ccc2c(c1)S(=O)(=O)N=C(C1=C(O)C3C4CCC(C4)C3N(Cc3ccc(F)cc3)C1=O)N2 (configuration not stated) | > 20 µM | > 20 µM
37 | CC1O[C@@H](OC2C(O)[C@H](OCCc3ccc(O)c(O)c3)OC(CO)[C@H]2OC(=O)/C=C/c2ccc(O)c(O)c2)C(O)C(O)[C@H]1O (some centres not stated) | > 20 µM | > 20 µM
38 | CNc1ccc(-c2ccc3cc(OC[C@H](O)CF)ccc3n2)cc1 | > 20 µM | > 20 µM
39 | CC(=O)O[C@H]1CC[C@@]2(C)[C@H](CC[C@@H]3[C@@H]2CC[C@]2(C)C(=O)CC[C@@H]32)C1 | > 20 µM | > 20 µM
40 | CC(=O)Nc1ccc(CC(=O)O)cc1 [ACTARIT] | > 20 µM | > 20 µM
41 | O=c1cc(-c2ccccc2)oc2cc(O)cc(O)c12 [CHRYSIN] | > 20 µM | > 20 µM
42 | Nc1cccc2c1C(=O)N(C1CCC(=O)NC1=O)C2=O (configuration not stated) [POMALIDOMIDE] | > 20 µM | > 20 µM

Row | Structure (SMILES) | IC50 | IC50 (read-out: pIC50 (converted))
43 | CC(=O)OCC(=O)[C@@]1(O)CC[C@H]2[C@@H]3CCC4=CC(=O)C=C[C@]4(C)[C@@]3(F)[C@@H](O)C[C@@]21C [ISOFLUPREDONE ACETATE] | > 20 µM | > 20 µM
44 | COc1ccc(-c2ccc(Cn3c(CC(C)(C)C(=O)O)c(SC(C)(C)C)c4cc(OCc5ccccn5)ccc43)cc2)cn1 | > 20 µM | > 20 µM
45 | OC(C1=NCCN1)(c1ccc(Cl)cc1)c1ccccn1 (configuration not stated) [DAZADROL] | > 20 µM | > 20 µM
46 | CC(=O)/N=c1/sc(S(N)(=O)=O)nn1C [METHAZOLAMIDE] | > 20 µM | > 20 µM
47 | O=C1C(=O)c2ncccc2-c2cccnc21 [PHANQUONE] | > 20 µM | > 20 µM
48 | CNCCCC1(C)C(=O)N(c2ccccc2)c2ccccc21 (configuration not stated) [AMEDALIN] | > 20 µM | > 20 µM
49 | CCC(=O)C(CC(C)N1CCOCC1)(c1ccccc1)c1ccccc1 (configuration not stated) [PHENADOXONE] | > 20 µM | > 20 µM
50 | COc1cc(OC)c(/C=C/S(=O)(=O)Cc2ccc(OC)c(NCC(=O)O)c2)c(OC)c1 [RIGOSERTIB] | > 20 µM | > 20 µM
51 | C[C@H](O)C(=O)C1=Nc2c(nc(N)[nH]c2=O)NC1 [SEPIAPTERIN] | > 20 µM | > 20 µM
52 | CN1C2CCC1CC(OC(c1ccccc1)c1ccccc1)C2 (configuration not stated) | > 20 µM | > 20 µM
53 | COc1cc2c(cc1O)CC1c3c(cc(O)c(OC)c3-2)CCN1C (configuration not stated) | > 20 µM | > 20 µM
54 | C#CCN(C)C(C)Cc1ccccc1 (configuration not stated) | > 20 µM | > 20 µM
55 | CN1CCN(C2=Nc3cc(F)ccc3Cc3ccccc32)CC1 [FLUPERLAPINE] | > 20 µM | > 20 µM
56 | COc1ccc(NC(=O)c2ccc(C(=N)N(C)C)cc2)c(C(=O)Nc2ccc(Cl)cn2)c1 [BETRIXABAN] | > 20 µM | > 20 µM
57 | c1cncc([C@@H]2CCCCN2)c1 [ANABASINE] | > 20 µM | > 20 µM
58 | CC(=O)OCC(CCn1cnc2cnc(N)nc21)COC(C)=O [FAMCICLOVIR] | > 20 µM | > 20 µM
59 | CCN(CC)CCOc1ccccc1C(=O)CCc1ccccc1 [ETAFENONE] | > 20 µM | > 20 µM
60 | CCC[C@@H]1C[C@@H](C(=O)N[C@@H]([C@H]2O[C@H](SC)[C@H](O)[C@@H](O)[C@H]2O)[C@H](C)Cl)N(C)C1 [CLINDAMYCIN HYDROCHLORIDE] | > 20 µM | > 20 µM
61 | CC(=O)Nc1cccc(-n2c(=O)n(C3CC3)c(=O)c3c(Nc4ccc(I)cc4F)n(C)c(=O)c(C)c32)c1 [TRAMETINIB] | > 20 µM | > 20 µM
